Results reported in article PMC8591608, “DNDI-6148: A Novel Benzoxaborole Preclinical Candidate for the Treatment of Visceral Leishmaniasis” (Journal of Medicinal Chemistry, 2021).
Values joined by “and” are separate entries in the source; they are usually repeats but may differ in a detail not shown here. Equal values may be shown once.

Assays:
CYP1A2 = CYP1A2 (Homo sapiens, UniProt P05177); test: CYP inhibition, CYP1A2; type: in vitro ADME; conditions: human liver microsomes
Description: The study was conducted by WuXi AppTec, Co., China, using the time-dependent (TDI) method. […] Following incubation with substrates (phenacetin for 1A2, diclofenac for 2C9, S-(+) mephenytoin for 2C19, dextromethorphan for 2D6, and midazolam or testosterone for 3A4), reactions were stopped by adding ice-cold acetonitrile, the samples were analyzed for the formation of metabolites by LC-MS/MS, and the percentage of inhibition was determined.

hERG potassium channels = target: T1, hERG potassium channels (Homo sapiens, UniProt Q12809); test: hERG inhibition, automated patch-clamp; type: cell-based; conditions: at 30 μM
T1 construct: expressed in transfected cells; host or cells: Chinese hamster ovary (CHO) cells
T1 sequence (Q12809 whole entry): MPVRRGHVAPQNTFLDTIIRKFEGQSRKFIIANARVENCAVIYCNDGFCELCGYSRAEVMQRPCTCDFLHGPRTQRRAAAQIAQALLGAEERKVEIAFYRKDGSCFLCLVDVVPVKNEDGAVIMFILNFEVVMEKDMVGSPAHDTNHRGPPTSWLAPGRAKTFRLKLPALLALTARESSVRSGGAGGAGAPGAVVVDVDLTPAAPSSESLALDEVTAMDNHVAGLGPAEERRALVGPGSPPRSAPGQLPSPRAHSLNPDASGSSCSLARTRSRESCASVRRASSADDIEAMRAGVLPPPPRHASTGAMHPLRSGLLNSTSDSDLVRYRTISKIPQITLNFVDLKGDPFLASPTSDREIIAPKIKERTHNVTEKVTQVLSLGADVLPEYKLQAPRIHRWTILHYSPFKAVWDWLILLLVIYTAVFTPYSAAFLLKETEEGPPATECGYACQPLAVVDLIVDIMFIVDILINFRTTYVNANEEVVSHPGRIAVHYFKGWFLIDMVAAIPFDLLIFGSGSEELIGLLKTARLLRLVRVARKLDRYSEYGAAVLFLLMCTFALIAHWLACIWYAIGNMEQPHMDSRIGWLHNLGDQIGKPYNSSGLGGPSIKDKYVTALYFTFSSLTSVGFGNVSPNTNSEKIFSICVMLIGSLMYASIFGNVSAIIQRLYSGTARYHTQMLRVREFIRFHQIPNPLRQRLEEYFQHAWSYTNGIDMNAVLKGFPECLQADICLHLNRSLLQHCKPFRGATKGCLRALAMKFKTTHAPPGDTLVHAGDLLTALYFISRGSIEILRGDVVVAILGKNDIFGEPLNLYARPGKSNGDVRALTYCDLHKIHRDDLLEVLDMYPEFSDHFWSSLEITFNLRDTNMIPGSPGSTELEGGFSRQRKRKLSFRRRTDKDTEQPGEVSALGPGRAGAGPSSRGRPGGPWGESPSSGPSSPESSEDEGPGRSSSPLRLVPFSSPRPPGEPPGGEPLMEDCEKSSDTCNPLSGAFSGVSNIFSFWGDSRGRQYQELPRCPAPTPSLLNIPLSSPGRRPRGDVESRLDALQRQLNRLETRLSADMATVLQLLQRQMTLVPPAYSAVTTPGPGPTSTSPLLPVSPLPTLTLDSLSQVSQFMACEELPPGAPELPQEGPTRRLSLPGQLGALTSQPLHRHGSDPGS
Description: An automated patch-clamp method (QPatch HTX) was used by WuXi AppTec, China. Chinese hamster ovary cells expressing hERG potassium channels were incubated at room temperature with test compounds (0.12, 0.37, 1.11, 3.33, 10, and 30 μM, in triplicate) or amitriptyline as a positive control.

[1] = Plasma-protein binding, human; type: in vitro ADME; conditions: pH 7.4
Description: (§1) Tests were conducted by WuXi AppTec, Co., China, using the equilibrium dialysis method and a 96-well plate format. The test compound (at 2 μM, in triplicate) in solution in plasma (Balb/c mouse, golden (Syrian) hamster, Sprague-Dawley rat, Beagle dog or human) was dialyzed against 100 mM phosphate-buffered saline (pH 7.4) on a rotating plate incubated for 6 h at 37 °C. Following the precipitation of protein with acetonitrile or acetonitrile/methanol containing both 1% phosphoric acid, the amount of compound present in each compartment was quantified by LC-MS/MS.

[2] = Plasma-protein binding, mouse; type: in vitro ADME; conditions: Balb/c, pH 7.4
Description: as §1

[3] = Liver microsome stability, mouse; type: in vitro ADME; conditions: Balb/c, mouse liver microsomes, pH 7.4
Description: Tests were performed by WuXi AppTec, China. Test compounds (at 1 μM) or positive controls (testosterone, propafenone, and diclofenac) were incubated at 37 °C with liver microsomes from Balb/c mouse, golden (Syrian) hamster, Sprague-Dawley rat, Beagle dog, or human in the presence of a NADPH regenerating system and phosphate buffer (100 mM, pH 7.4) at 0.4 or 0.8 mg/mL microsomal protein. The samples were removed at time intervals from 0 to 60, 90, or 120 min and immediately mixed with cold methanol supplemented or not with acid (3% formic acid) and centrifuged prior to analysis by LC-MS/MS using tolbutamide or propranolol as internal standards.

[4] = Hepatocyte stability, human; type: in vitro ADME; conditions: cryopreserved hepatocytes
Description: Tests were performed by WuXi AppTec, China. Following a viability check of cryopreserved hepatocytes from Sprague-Dawley rat, Beagle dog, or human, test compounds (at 1 μM) or positive controls 7-ethoxycoumarin and 7-hydroxycoumarin (at 3 μM) were incubated at 37 °C, 5% CO2 with hepatocytes in Williams’ Medium E. Following incubation of 15, 30, 60, 90, 120, 180, and 240 min, reactions were stopped by the addition of acetonitrile, the samples were centrifuged, and LC-MS/MS analysis was conducted using tolbutamide as an internal standard.

[5] = system: T. brucei trypanosomes maintaining a mutated version of CPSF3 (Asn232His); test: Drug sensitivity, T. brucei with mutated CPSF3; type: cell-based
Description: (§2) The clonal L. donovani cell line LdBOB (derived from MHOM/SD/62/1S-CL2D) was grown as promastigotes at 28 °C, as described previously. Bloodstream form T. brucei MiTat 1.2 clone 221a and its derived subline, 2T1, were cultured at 37 °C in the presence of 5% CO2 in HMI9-T medium, as described previously. T. brucei cell lines overexpressing CPSF3 and overexpressing a mutated version of CPSF3 (Asn232His) were generated as part of a previous study and cultured as described.[19]
(§3) Drug sensitivity assays with wild-type and transgenic T. brucei and L. donovani cell lines were carried out as previously described.[31],[32]

[6] = system: CPSF3-overexpressing L. donovani promastigotes; test: Drug sensitivity, CPSF3-overexpressing L. donovani promastigotes; type: cell-based; conditions: Leishmania donovani
Description: as §2
L. donovaniCPSF3 gene (LdBPK_343210.1) was custom synthesized by GeneArt and ligated into the pIR1SAT vector via BglII restriction sites. Using the Q5 mutagenesis kit (NEB) and the pIR1SAT-LdCPSF3^WT construct as a template, mutations encoding A655C and Asn219His change to CPSF3^WT were introduced. Mutations were introduced using the specific primers 5′-GAGTACACGGCATCCGC-3′ and 5′-[…]-3′ and as per manufacturers’ instructions. Wild-type and mutated pIR1SAT constructs were digested with SwaI and transfected into L. donovani promastigotes, as previously described. Resistant clones were selected with nourseothricin (100 μg/mL), and two clones per transfection were selected for further study.
as §3

[7] = system: L. donovani clones, CPSF3 Asn219His; test: Drug sensitivity, L. donovani CRISPR-Cas9 edited CPSF3 Asn219His; type: cell-based; conditions: listed as DNDI-6148
Description: (§4) A cell line constitutively expressing Cas9 and T7 RNA polymerase was generated by transfecting 4 × 10^7 promastigotes with the pTB007 vector (10 μg), as previously described.[29] Expression of Cas9 in selected clones was confirmed by western blotting (Figure S1). In addition, the CRISPR-Cas9 system in these parasites was confirmed as functional following the successful tagging of the flagellar protein PF16 with mNeonGreen, as previously described.[29]
(§5) To introduce specific mutations into CPSF3, 3 × 10^6 promastigotes expressing Cas9 and T7 RNA were resuspended in a 110 μL of Human T-Cell Nucleofector reagent and transfected with 18 μL of sgRNA and 4 μg of template using the Amaxa Nucleofector electroporator (program V-033). sgRNA was produced according to the previously established protocol from the Gluenz lab,[30] in which the scaffold primer G00 and a gene-specific forward primer (FwsgRNA) were used (Table S1). Twenty-four hours following transfection, DNDI-6148 was added to cultures at 6 μM. Drug-selected populations were cloned by limiting dilution, EC50s were determined, and genomic DNA was extracted. The CPSF3 gene from CRISPR-edited parasites was amplified by PCR, and the resulting products were sequenced.
as §3

[8] = system: L. donovani clones, CPSF3 Asn219His/Glu229Val; test: Drug sensitivity, L. donovani CRISPR-Cas9 edited CPSF3 Asn219His/Glu229Val; type: cell-based
Description: as §4, §5, §3

Chain of CYP1A2 (P05177 whole entry): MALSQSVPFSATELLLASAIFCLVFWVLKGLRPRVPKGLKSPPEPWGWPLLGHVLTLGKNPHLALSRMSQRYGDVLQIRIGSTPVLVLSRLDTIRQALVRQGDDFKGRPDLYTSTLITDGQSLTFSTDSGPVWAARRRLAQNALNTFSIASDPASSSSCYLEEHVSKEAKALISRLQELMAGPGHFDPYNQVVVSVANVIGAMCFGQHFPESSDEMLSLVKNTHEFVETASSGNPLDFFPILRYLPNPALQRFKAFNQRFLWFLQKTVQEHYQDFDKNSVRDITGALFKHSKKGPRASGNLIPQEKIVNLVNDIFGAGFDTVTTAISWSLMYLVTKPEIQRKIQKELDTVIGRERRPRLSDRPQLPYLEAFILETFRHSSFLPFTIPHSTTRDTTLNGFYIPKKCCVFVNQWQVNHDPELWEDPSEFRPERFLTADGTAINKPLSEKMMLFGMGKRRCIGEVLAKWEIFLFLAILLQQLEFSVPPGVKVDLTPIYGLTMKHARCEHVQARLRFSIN

Compound: Cc1c(C(=O)Nc2ccc3c(c2)B(O)OC3)nnn1-c1ccccn1 [Compound 23, N-(1-Hydroxy-1,3-dihydrobenzo[c][1,2]oxaborol-6-yl)-5-methyl-1-(pyridin-2-yl)-1H-1,2,3-triazole-4-carboxamide]
- IC50 (CYP1A2): > 50 µM
- hERG inhibition (hERG potassium channels): < 20%
- fraction unbound at 6 h, 2 µM [1]: 0.08
- fraction unbound at 6 h, 2 µM [2]: 0.07
- microsomal CLint at 1 μM [3]: < 11.9 µL/min/mg
- hepatocyte CLint at 1 μM [4]: 0.5 µL/min/1e6 cells
- EC50 ([5]; Trypanosoma brucei): 0.09 ± 0.0034 µM
- fold less sensitive compared to wild-type ([5]; bloodstream trypanosomes, CPSF3 Asn232His): 1.8 fold
- EC50 [6]: 0.508 ± 0.013 µM
- Fold change (relative to WT) [7]: 3.0 fold and 3 fold
- Fold change (relative to WT) ([8]; CRISPR-Cas9 edited Asn219His/Glu229Val, listed as DNDI-6148): > 5 fold
- EC50 ([8]; Leishmania donovani): 2830 ± 139 µM
